PubChem BioAssay AID192 (DTP/NCI, 2004)
Inconclusive results and toxic doses are left out. Square brackets hold non-standard residues; d marks the D form. Peptide text beside a SMILES is read from it. ξ: configuration not given here. ξV = CC(C)C(N)C(=O)O

System: BDF1 mice, B16 melanoma ip, median survival T/C
Test: NCI In Vivo Anticancer Drug Screen. Data for tumor model B16 Melanoma (intraperitoneal) in B6D2F1 (BDF1) mice
Conditions: endpoint: median survival time, higher = longer survival
How it was run: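 Each result divides a survival or tumor-size measurement in the compound-treated group by the same measurement in the vehicle group.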

[1] = dose: 25.0 mg/kg/injection, schedule: Q01DX009 (ip), vehicle: saline with Tween-80
[2] = dose: 50.0 mg/kg/injection, schedule: Q01DX009 (ip), vehicle: saline with Tween-80
[3] = dose: 100.0 mg/kg/injection, schedule: Q01DX009 (ip), vehicle: Klucel (hydroxypropylcellulose) (HPC)
[4] = dose: 100.0 mg/kg/injection, schedule: Q01DX009 (ip), vehicle: carboxymethylcellulose (CMC)
[5] = dose: 100.0 mg/kg/injection, schedule: Q01DX009 (ip), vehicle: saline with Tween-80
[6] = dose: 200.0 mg/kg/injection, schedule: Q01DX009 (ip), vehicle: Klucel (hydroxypropylcellulose) (HPC)
[7] = dose: 400.0 mg/kg/injection, schedule: Q01DX009 (ip), vehicle: Klucel (hydroxypropylcellulose) (HPC)
[8] = dose: 100.0 mg/kg/injection, schedule: Q01DX009 (ip), vehicle: saline
[9] = dose: 200.0 mg/kg/injection, schedule: Q04DX003 (ip), vehicle: saline

## COC1C(O)C(C)OC(OC2C(Oc3cccc4c(O)c5c(=O)oc6ccc(C)c7c(=O)oc(c34)c5c67)OC(C)C(O)C2O)C1O (stereo not given)
dose: 16.0 mg/kg/injection, schedule: Q04DX003 (ip), vehicle: saline with Tween-80
  T/C: 107 % of control
[1]
  T/C: 183 % of control
dose: 32.0 mg/kg/injection, schedule: Q04DX003 (ip), vehicle: saline with Tween-80
  T/C: 101 % of control
dose: 50.0 mg/kg/injection, schedule: Q01DX009 (ip), vehicle: carboxymethylcellulose (CMC)
  T/C: 179 % of control
[2]
  T/C: 199 % of control
dose: 64.0 mg/kg/injection, schedule: Q04DX003 (ip), vehicle: saline with Tween-80
  T/C: 122 % of control
[3]
  T/C: 119 % of control
[4]
  T/C: 206 % of control
[5]
  T/C: 185 % of control
dose: 128.0 mg/kg/injection, schedule: Q04DX003 (ip), vehicle: saline with Tween-80
  T/C: 119 % of control

## C=CCOCC(O)CN(CC(C)C)CC(C)C (stereo not given)
dose: 6.25 mg/kg/injection, schedule: Q01DX009 (ip), vehicle: Klucel (hydroxypropylcellulose) (HPC)
  T/C: 98 % of control
dose: 12.5 mg/kg/injection, schedule: Q01DX009 (ip), vehicle: Klucel (hydroxypropylcellulose) (HPC)
  T/C: 104 % of control
dose: 25.0 mg/kg/injection, schedule: Q01DX009 (ip), vehicle: Klucel (hydroxypropylcellulose) (HPC)
  T/C: 100 % of control

## Nc1cccc2c1C(=O)c1cccc(NC(=O)c3ccccc3)c1C2=O
[3]
  T/C: 90 % of control
[6]
  T/C: 106 % of control
[7]
  T/C: 90 % of control

## Cc1ccc(NS(=O)(=O)c2ccc(F)cc2)cc1C
[3]
  T/C: 96 % of control
[6]
  T/C: 100 % of control
[7]
  T/C: 93 % of control

## COC(=O)/C(C)=C/C=C/C(OC)C(OC(N)=O)/C(C)=C/C(C)C(O)C(CC(C)CC1=C(OC)C(=O)C=C(N)C1=O)OC (stereo not given)
dose: 12.5 mg/kg/injection, schedule: Q01DX005 (ip), vehicle: other
  T/C: 103 % of control
dose: 25.0 mg/kg/injection, schedule: Q01DX005 (ip), vehicle: other
  T/C: 99 % of control
dose: 50.0 mg/kg/injection, schedule: Q01DX005 (ip), vehicle: other
  T/C: 108 % of control
dose: 100.0 mg/kg/injection, schedule: Q01DX005 (ip), vehicle: other
  T/C: 108 % of control
dose: 200.0 mg/kg/injection, schedule: Q01DX005 (ip), vehicle: other
  T/C: 86 % of control

## CC(C)C(NC(=O)CNC(=O)CN)C(=O)O (stereo not drawn) (H-Gly-Gly-[ξV]-OH)
[8]
  T/C: 95 % of control
dose: 100.0 mg/kg/injection, schedule: Q04DX003 (ip), vehicle: saline
  T/C: 100 % of control
dose: 200.0 mg/kg/injection, schedule: Q01DX009 (ip), vehicle: saline
  T/C: 97 % of control
[9]
  T/C: 97 % of control
dose: 400.0 mg/kg/injection, schedule: Q01DX009 (ip), vehicle: saline
  T/C: 95 % of control
dose: 400.0 mg/kg/injection, schedule: Q04DX003 (ip), vehicle: saline
  T/C: 95 % of control

## Cc1cc(Cc2cc(C)cc(C(C)(C)C)c2O)c(O)c(Cc2cc(C)cc(C(C)(C)C)c2O)c1
dose: 100.0 mg/kg/injection, schedule: Q04DX003 (ip), vehicle: gum acacia
  T/C: 97 % of control
dose: 200.0 mg/kg/injection, schedule: Q04DX003 (ip), vehicle: gum acacia
  T/C: 100 % of control

## CCCC1(CCC)CN(CO)C1=O
dose: 12.5 mg/kg/injection, schedule: Q01DX009 (ip), vehicle: saline
  T/C: 100 % of control
dose: 25.0 mg/kg/injection, schedule: Q01DX009 (ip), vehicle: saline
  T/C: 100 % of control
dose: 50.0 mg/kg/injection, schedule: Q01DX009 (ip), vehicle: saline
  T/C: 106 % of control
[8]
  T/C: 111 % of control
[9]
  T/C: 91 % of control

## Cc1ccc(Cl)cc1NC(=O)Nc1ccc(C)c(NC(=O)Nc2cc(Cl)ccc2C)c1
[5]
  T/C: 90 % of control
dose: 200.0 mg/kg/injection, schedule: Q01DX009 (ip), vehicle: saline with Tween-80
  T/C: 95 % of control
dose: 400.0 mg/kg/injection, schedule: Q01DX009 (ip), vehicle: saline with Tween-80
  T/C: 90 % of control

## COc1ccc(OC)c(C2N(Cc3ccc(N(C)C)cc3)CCCN2Cc2ccc(N(C)C)cc2)c1
[1]
  T/C: 104 % of control
[2]
  T/C: 97 % of control
[5]
  T/C: 100 % of control

## CS(=O)(=O)c1nnc(-c2ccccc2)s1
[4]
  T/C: 111 % of control
dose: 200.0 mg/kg/injection, schedule: Q01DX009 (ip), vehicle: carboxymethylcellulose (CMC)
  T/C: 102 % of control
